The results in this text go back to PMC12236907, “A Natural Depsipeptide Antibiotic that Targets the E site of the Bacterial Ribosome” (Research Square, 2025).

“Also recorded” adds a separate entry of the source. Where a SMILES comes first, the peptide text is derived from it. Bridges are numbered along the chain shown (N, C = ends). [ ]: non-standard residue; d: D form. dOrn = NCCC[C@@H](N)C(=O)O

Assay [1] has as its system multi-drug-resistant Enterobacteriaceae.
For assay [2], the system named is K. pneumoniae C1559. The experiment in a line: Time-dependent killing assay, K. pneumoniae. It counts as cell-based, Klebsiella pneumoniae. As to conditions: K. pneumoniae C1559, MHB, 5×MIC (80 μg/ml), 37°C, 0-24 h; mean of three biological replicates. As to the method: E. coli BW25113 and Klebsiella pneumoniae C1559 were grown overnight in 5 ml of cation-adjusted Mueller-Hinton Broth. The cultures were then inoculated into fresh medium to achieve an OD600 of 0.1, corresponding to a concentration of 10^8 CFU/ml. […] Samples were taken at 0 h, 3 h, 6 h, and 24 h post-incubation, plated on MHA plates, and incubated for 20–24 hours at 37°C. Colony counts were used to determine the log reduction in CFU/ml, comparing treated strains to untreated control samples.

The target of assay [3] is rabbit reticulocyte lysate. Briefly: Inhibition of protein synthesis in rabbit reticulocyte lysate programmed with luciferase mRNA. It counts as biochemical.
Assay [4] relates to 70S ribosome (50S subunit). The experiment in a line: Cryo-EM of MKM-stalled ribosome complexes. The format is binding, E. coli. Conditions: ermBL MKM-SRC, 50 μM MKM. The procedure:
MKM-ribosome complexes were generated by in vitro translation reactions in the PURExpress In vitro Protein Synthesis Kit (NEB) as described by the manufacturer. Complex formation reactions were carried out on ermBL toeprint mRNA template (Supplementary Table 7) in a 75 μl of reaction in presence of 50 μM MKM. The reaction was incubated for 15 min at 37 °C. The reaction volume was then split: 69 μl were used for complex generation and 6 μl were further analyzed by toeprinting. Ribosome complexes were isolated by centrifugation in 900 μl of sucrose gradient buffer (containing 40% sucrose, 50 mM HEPES-KOH, pH 7.4, 100 mM KOAc, 25 mM Mg(OAc)2 and 6 mM 2-mercaptoethanol) for 3 h at 4 °C with 80,000 g in a Optima Max-XP Tabletop Ultracentrifuge with a TLA 120.2 rotor. […]
Cryo-EM grids were prepared by applying 3.5 μl of MKM-70S complexes onto freshly glow-discharged Quantifoil R3.5/1 grids (copper, 300 mesh, with an additional 3 nm carbon layer; Product: C3-C19nCu30–01). […]
Movies were captured at a nominal magnification of 105,000×, corresponding to a calibrated pixel size of 0.832 Å (0.416 Å in super-resolution mode, binned 2× via EPU). […] Each exposure lasted 1.95 seconds in nanoprobe mode, during which 35 frames were recorded at a dose rate of ~1.14 electrons per frame per Å^2, resulting in a total accumulated dose of approximately 40 electrons per Å^2 (~15 e^−/px/s over vacuum). […]

The test system of assay [5] is E. coli strain SQ110ΔtolC::pZsbmA. As to conditions: agar with 4×MIC of MKM (32 μg/ml).
Assay [6] concerns E. coli BW25113. Briefly: Bacterial cell morphology by scanning electron microscopy. The format is cell-based. Conditions: E. coli BW25113, 32 and 80 μg/ml, MOPS minimal medium, 1 h at 37°C. The procedure: After treatment, the cells were centrifuged at 5,000×g for 5 min, then resuspended in a fixative solution (4% glutaraldehyde in PBS, pH 7.4) at 0.1× the original volume. The cells were fixed at room temperature for 1 h and stored overnight at 4 °C. The following day, 50 μl of the fixed cells were transferred onto coverslips coated with poly-L-lysine, dehydrated through a series of ethanol treatments, and dried using a critical point dryer. The samples were then examined with a scanning electron microscope (TESCAN VEGA-II LSU) equipped with an X-MAX 80mm^2 EDS detector, and images were captured using INCA software.

On to `C[C@@H](O)[C@@H]1NC(=O)[C@@H](CCCNC(=N)N)NC(=O)[C@@H](CCCNC(=N)N)NC(=O)[C@@H](CC(N)=O)NC(=O)[C@@H](NC(=O)[C@@H](Cc2ccccc2)NC(=O)[C@@H](CCCN)NC(=O)[C@H](N)CCCNC(=N)N)[C@@H](C)OC(=O)[C@H](Cc2c[nH]cn2)NC1=O` [MKM, manikomycin A] (H-[dR][dOrn][dF]T[dN][dR][dR]TH; ester 4-C), for which, in assay [1], the “killing of multi-drug-resistant Enterobacteriaceae” value was “can kill”. Besides, the time-kill effect entry in assay [2] is given as “bactericidal”. Besides, in assay [3] (IC50 9.2 μM vs 0.6 μM in E. coli system), the “IC50 ratio rabbit reticulocyte lysate / bacterial system” value is recorded as “approximately 15 fold”. The “inhibition of eukaryotic / mammalian translation (in words)” value in assay [3] (rabbit reticulocyte lysate (Fig. 2d)) is given as “poor inhibition; also recorded: very weak inhibitor”. Also, the IC50 in assay [3] (rabbit reticulocyte lysate, luciferase mRNA) came to 9.2 µM. In assay [3] (rabbit reticulocyte lysate, higher than cycloheximide), the “IC50 ratio to cycloheximide” value is 35 fold. Also, the second binding site entry in assay [4] is “at the back of the 50S subunit”. Moreover, in assay [4] (2.4 Å focused refinement on 50S), the primary binding site result is recorded as “located within the E site of the 50S subunit”. In addition, in assay [5], the “frequency of resistant colonies” value is recorded as ~ 10^−7. For the same compound, the bacterial cell morphology entry in assay [6] is reported as “no detectable changes in bacterial cell morphology”.
